According to patent EP4786466A1, “QUINAZOLINE DERIVATIVE, SALT THEREOF, AND PHARMACEUTICAL COMPOSITION COMPRISING SAME AS ACTIVE INGREDIENT” (Korea Research Institute of Chemical Technology, priority 2023, dated 2025):
Where two headings read alike, the source gives them in different places.

How the values were obtained:
pENSA = pENSA level by immunofluorescence (described method: in vitro kinase analysis with GST-tag-MASTL and His-tag-ENSA); assay type: cell-based; conditions: for pENSA (%) Immunofluor ecense (1 µM): compound 1 µM
Procedure, shortened: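 In vitro kinase reaction using recombinant GST-tagged MASTL with His-tagged ENSA as substrate; phosphorylated ENSA (pENSA) serves as read-out of MASTL activity. Cell lines named: MCF7 breast cancer and MCF10A.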

[1] = target: T1, Recombinant GST-TAG-MASTL (Homo sapiens, UniProt Q96GX5); test: HTRF-based kinase assay (HTRF KinEASE assay kit); assay type: biochemical; conditions: for activity at 1 µM: read-out: MASTL activity (%) HTRF (1 µM)
T1 construct: GST; purchased Thermo Fisher Scientific
T1 sequence (Q96GX5 1-879): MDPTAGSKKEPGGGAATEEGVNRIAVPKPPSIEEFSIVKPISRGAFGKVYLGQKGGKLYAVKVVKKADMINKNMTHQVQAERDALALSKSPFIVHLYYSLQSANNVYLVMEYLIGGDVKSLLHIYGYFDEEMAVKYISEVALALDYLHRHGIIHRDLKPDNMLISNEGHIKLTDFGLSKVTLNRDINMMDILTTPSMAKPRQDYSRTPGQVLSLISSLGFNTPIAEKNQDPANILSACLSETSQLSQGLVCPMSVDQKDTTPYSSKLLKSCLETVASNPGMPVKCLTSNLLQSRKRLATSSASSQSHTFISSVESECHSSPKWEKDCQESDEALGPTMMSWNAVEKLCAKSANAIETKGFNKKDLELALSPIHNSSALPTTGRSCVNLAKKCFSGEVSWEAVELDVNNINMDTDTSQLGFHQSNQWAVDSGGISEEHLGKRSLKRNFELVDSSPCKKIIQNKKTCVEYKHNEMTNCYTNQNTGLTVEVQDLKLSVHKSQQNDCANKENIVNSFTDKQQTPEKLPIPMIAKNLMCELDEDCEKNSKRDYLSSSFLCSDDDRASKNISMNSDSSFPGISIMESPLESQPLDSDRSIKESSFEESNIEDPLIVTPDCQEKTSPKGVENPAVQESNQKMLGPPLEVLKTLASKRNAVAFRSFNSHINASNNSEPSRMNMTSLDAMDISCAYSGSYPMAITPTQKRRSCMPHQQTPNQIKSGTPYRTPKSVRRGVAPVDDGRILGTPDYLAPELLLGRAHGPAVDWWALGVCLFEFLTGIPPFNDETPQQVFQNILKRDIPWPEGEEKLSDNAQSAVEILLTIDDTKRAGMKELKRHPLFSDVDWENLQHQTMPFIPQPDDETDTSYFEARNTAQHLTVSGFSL
Text: Recombinant GST-TAG-MASTL (Thermo Fisher Scientific, MA, USA) was used for HTRF-based kinase assays. The HTRF KinEASE assay kit (CisBio, MA, USA) was used according to the manufacturer's instructions.

in vitro = conditions: human
Method: (§1) MCF7 breast cancer cell lines and MCF10A normal breast cancer cell lines were treated with serial dilutions of the compounds of the present invention ranging from 1 µM to 15.63 nM for 72 hours. Cell viability was measured by the WST-8 assay (Cyto XTM cell viability assay kit; LPS solution, Daejeon, Korea) according to the manufacturer's instructions.

[2] = system: MCF7 breast cancer cell lines; test: Cell viability analysis, WST-8 assay, MCF7; conditions: Homo sapiens, MCF7, 72 h; for viability at 1.25 µM: read-out: Cell viability (%) WST-8, MCF7, footnote a: concentration 1.25 µM, 72 hours; for viability at 1 µM: read-out: Cell viability (%) WST-8, MCF7 (1 µM), compound 1 µM, 72 hours; for viability at 1.1 µM: read-out: Cell viability (%) WST-8, MCF7, footnote d: concentration 1.1 µM, 72 hours
Method: as §1

[3] = system: MCF10A normal breast cell lines; test: Cell viability analysis, WST-8 assay, MCF10A; conditions: Homo sapiens, MCF-10A, 72 h
Method: as §1

[4] = read-out: IC50 Cell viability (MCF7)
[5] = read-out: IC50(nM) Cell viability (MCF10A)
[6] = read-out: IC50(nM) Cell viability (MCF7)
[7] = read-out: IC50 Cell viability (MCF10A)
[8] = HTRF, read-out: IC50(nM) MASTL activity
[9] = footnote b: concentration 10 µM, read-out: MASTL activity (%) HTRF

| Compound | pENSA (%) Immunofluor ecense (1 µM) (pENSA) [%] | IC50 (pENSA; read-out: IC50(nM) pENSA) [nM] | viability at 1.25 µM (in vitro; mcf10a cells) [%] | viability at 1.25 µM [2] [%] | IC50 [2, 4] [nM] | IC50 [3, 5] [nM] | viability at 1 µM (in vitro; mcf10a cells) [%] | viability at 1 µM [2] [%] | IC50 [2, 6] [nM] | IC50 [3, 7] [nM] | IC50 [1, 8] [nM] | activity at 10 µM [1, 9] [%] | activity at 1 µM ([1]; compound 1 µM) [%] | further results |
| --- | --- | --- | --- | --- | --- | --- | --- | --- | --- | --- | --- | --- | --- | --- |
| O=S(=O)(NCCO)c1ccc(Nc2nc(Nc3cc(C4CC4)[nH]n3)c3ccccc3n2)cc1 [compound 4i, 4-((4-((5-cyclopropyl-1G-pyrazol-3-yl)amino)quinazolin-2-yl)amino)-M-(2-hydroxyethyl)benzenesulfonamide] | 16 | 378 | 5.8 | 45.9 | 1100 | 132 | – | – | – | – | – | – | – | IC50 [1]: 1200 nM; activity at 10 µM ([1]; read-out: MASTL activity (%) HTRF): 8.7% |
| c1ccc2c(Nc3cc(C4CC4)[nH]n3)nc(N3CC4CC3CN4)nc2c1 (stereo not drawn) [compound 14, 2-(2,5-diazabicyclo[2.2.1]heptan-2-yl)-M-(5-cyclopropyl-1G-pyrazol-3-yl)quinazolin-4-amine Trifluoroacetic acid] | 9.2 | 645 | – | – | – | – | 63.4 | 21.8 | 647 | 1700 | – | – | – | IC50 [1]: 593 nM; activity at 1 µM [1]: 25.5% |
| c1ccc(Nc2nc(Nc3cc(C4CC4)[nH]n3)c3ccccc3n2)cc1 [compound 4a, M^4-(5-cyclopropyl-1G-pyrazol-3-yl)-M^2-phenylquinazoline-2,4-diamine] | 3.7 | 501 | 34 | 8.1 | – | 881 | – | – | 649 | – | 987 | – | – | activity at 1.25 µM ([1]; footnote a: concentration 1.25 µM, read-out: MASTL activity (%) HTRF): 54.9% |
| CNCc1ccc(-c2nc(Nc3cc(C4CC4)[nH]n3)c3ccccc3n2)cc1 [9d, N-(5-cyclopropyl-1H-pyrazol-3-yl)-2-(4-((methylamino)methyl)phenyl)quinazolin-4-amine hydrogen chloride] | – | 577 | – | 36.2 | – | 413 | – | – | 539 | – | 119 | 20.4 | – | viability at 1.25 µM (in vitro): 11.1% |
| NCCCNC(=O)c1ccc(Nc2nc(Nc3cc(C4CC4)[nH]n3)c3ccccc3n2)cc1 [4ab, M-(3-aminopropyl)-4-((4-((5-cyclopropyl-1G-pyrazol-3-yl)amino)quinazolin-2-yl)amino)benzamide.trifluoroacetic acid] | 188 | – | – | – | 12400 | – | 101 | 101 | – | 5800 | – | – | – | IC50 [1]: 1100 nM; activity at 1 µM [1]: 36.2% |
| O=S(=O)(c1ccc(F)cc1)N1CC2CC1CN2c1nc(Nc2cc(C3CC3)[nH]n2)c2ccccc2n1 (stereo not drawn) [compound 15n, M-(5-cyclopropyl-1G-pyrazol-3-yl)-2-(5-((4-fluorophenyl)sulfonyl)-2,5-diazabicyclo[2.2.1]heptan-2-yl)quinazolin-4-amine] | 77.5 | – | – | – | 3500 | – | – | – | – | 1300 | 327 | – | 32.4 | viability at 1.1 µM (in vitro; mcf10a cells): 63.9%; viability at 1.1 µM [2]: 108% |
| CCCS(=O)(=O)N1CC2CC1CN2c1nc(Nc2cc(C3CC3)[nH]n2)c2ccccc2n1 (stereo not drawn) [compound 15j, M-(5-cyclopropyl-1G-pyrazol-3-yl)-2-(5-(propylsulfonyl)-2,5-diazabicyclo[2.2.1]heptan-2-yl)quinazolin-4-amine] | 65.2 | – | – | – | 3200 | – | – | – | – | 1300 | 284 | – | 31.6 | viability at 1.1 µM (in vitro; mcf10a cells): 65.2%; viability at 1.1 µM [2]: 104% |
| c1ccc2c(Nc3cc(C4CC4)[nH]n3)nc(Nc3ccc4cc[nH]c4c3)nc2c1 [compound 4dc, N^4-(5-cyclopropyl-1H-pyrazol-3-yl)-N^2-(1H-indol-6-yl)quinazoline-2,4-diamine] | – | – | – | – | – | – | – | 6.4 | 467 | 1300 | 480 | – | 22.1 | IC50 (pENSA; unit µM, read-out: IC50 pENSA): 2500 nM; viability at 1 µM (in vitro): 54% |
| CN1CCN(c2nc(Nc3cc(C4CC4)[nH]n3)c3ccccc3n2)CC1 [compound 12a, M-(5-cyclopropyl-1G-pyrazol-3-yl)-2-(4-methylpiperazin-1-yl)quinazolin-4-amine] | 63.8 | – | 82.3 | 26.2 | – | – | – | – | 697 | 2400 | – | 26.3 | – | IC50 (pENSA; unit µM, read-out: IC50 pENSA): 1100 nM |
| O=C(Nc1ccc(F)cc1)N1CCN(c2nc(Nc3cc(C4CC4)[nH]n3)c3ccccc3n2)CC1 [compound 12d, 4-(4-((5-cyclopropyl-1G-pyrazol-3-yl)amino)quinazolin-2-yl)-M-(4-fluorophenyl)piperazine-1-carboxamide] | 46.3 | 571 | 63.7 | 55.8 | 1500 | – | – | – | – | 1500 | 832 | 14.1 | – | – |
| c1ccc(CNc2nc(Nc3cc(C4CC4)[nH]n3)c3ccccc3n2)cc1 [compound 4cc, N^2-benzyl-N^4-(5-cyclopropyl-1H-pyrazol-3-yl)quinazoline-2,4-diamine] | – | 363 | – | 65.5 | 1100 | – | – | – | – | 2800 | 298 | 22 | – | viability at 1.25 µM (in vitro): 98.5% |
| O=C(O)Cc1ccc(Nc2nc(Nc3cc(C4CC4)[nH]n3)c3ccccc3n2)cc1 [compound 4s, 2-(4-((4-((5-cyclopropyl-1G-pyrazol-3-yl)amino)quinazolin-2-yl)amino)phenyl)acetic acid] | 89.1 | 89.1 | – | – | – | 113 | 113 | 102 | 102 | – | – | – | 56.2 | – |
| CC(C)(C)OC(=O)N1CC2CCC1CN2c1nc(Nc2cc(C3CC3)[nH]n2)c2ccccc2n1 (stereo not drawn) [compound 19, sdqs,butyl 5-(4-((5-cyclopropyl-1G-pyrazol-3-yl)amino)quinazolin-2-yl)-2,5-diazabicyclo[2.2.2]octane-2-carboxylate] | 84.7 | – | – | – | 1100 | 810 | 71.3 | 41.2 | – | – | 569 | – | 39.9 | – |
| NCCNC(=O)c1ccc(Nc2nc(Nc3cc(C4CC4)[nH]n3)c3ccccc3n2)cc1 [4aa, M-(2-aminoethyl)-4-((4-((5-cyclopropyl-1G-pyrazol-3-yl)amino)quinazolin-2-yl)amino)benzamide.trifluoroacetic acid] | 142.5 | – | – | – | 4500 | – | 111 | 87.6 | – | 9000 | – | – | – | IC50 [1]: 720 nM; activity at 1 µM [1]: 26.8% |
| c1ccc2c(Nc3cc(C4CC4)[nH]n3)nc(N3CCNCC3)nc2c1 [compound 11, M-(5-cyclopropyl-1G-pyrazol-3-yl)-2-(piperazin-1-yl)quinazolin-4-amine] | 66.4 | – | 98 | 104 | 3200 | – | – | – | – | 4100 | – | 18.1 | – | IC50 ([1]; HTRF, unit µM, read-out: IC50 MASTL activity): 1000 nM |
| OCCN1CCN(c2nc(Nc3cc(C4CC4)[nH]n3)c3ccccc3n2)CC1 [compound 12b, 2-(4-(4-((5-cyclopropyl-1G-pyrazol-3-yl)amino)quinazolin-2-yl)piperazin-1-yl)ethan-1-ol] | 41.7 | 852 | 123 | 69.4 | 1500 | 2600 | – | – | – | – | 807 | 17.7 | – | – |
